Among the data in patent US5610271A, “Kappa receptor selective opioid peptides” (Torrey Pines Institute for Molecular Studies, priority 1995, dated 1997) are IC50 values, retold here.

Square brackets hold non-standard residues; d marks the D form. Peptide text beside a SMILES is read from it. dCha = N[C@H](CC1CCCCC1)C(=O)O; dNle = CCCC[C@@H](N)C(=O)O

T1 sequence (P41144 whole entry): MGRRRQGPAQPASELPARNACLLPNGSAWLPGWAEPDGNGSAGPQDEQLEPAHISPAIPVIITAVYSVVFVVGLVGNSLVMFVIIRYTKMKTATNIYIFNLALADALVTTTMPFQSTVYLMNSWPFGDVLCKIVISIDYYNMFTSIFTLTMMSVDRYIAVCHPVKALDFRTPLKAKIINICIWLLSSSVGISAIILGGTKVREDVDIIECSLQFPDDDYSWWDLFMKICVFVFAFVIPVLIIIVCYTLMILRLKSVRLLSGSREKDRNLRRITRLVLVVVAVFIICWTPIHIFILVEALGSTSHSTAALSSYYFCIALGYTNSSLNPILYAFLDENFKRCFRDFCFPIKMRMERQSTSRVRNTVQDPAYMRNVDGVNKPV

The test addresses T1, κ receptor (Cavia porcellus, UniProt P41144).
T1 construct: tissue homogenates prepared from guinea pig brains (cortex and cerebellum); tissue Harlan Bioproducts for Science (Indianapolis, Ind.); host or cells: guinea pig brain, cortex and cerebellum, crude membrane homogenate
The experiment in a line: Radioreceptor assay selective for the kappa receptor (inhibition of [3H]-U69,593 binding). Also on record: species or system guinea pig. On the procedure: Guinea pig brains, frozen in liquid nitrogen, were obtained from Harlan Bioproducts for Science (Indianapolis, Ind.). Frozen brains were thawed, the cerebella and cortex were removed and weighed. The combined cortex and cerebella were homogenized in 40 ml Tris-HCl buffer (50 mM, pH 7.4, 4° C.) containing 100 μM phenylmethylsulfonyl fluoride (PMSF) 5 mM MgCl2 and 1 mg/ml bovine serum albumin (BSA) and centrifuged (39000×g) (Model J2-HC; Beckman Instruments, Fullerton, Calif.) for 10 min at 4° C. The pellets were resuspended in fresh Tris-HCl buffer and incubated at 37° C. for 40 min. Following incubation, the suspensions were centrifuged as above, the resulting pellets resuspended in 100 volumes of Tris buffer and the suspensions combined. Membrane suspensions were prepared and used in the same day. Protein content of the crude homogenates ranged from 0.1-0.3 mg/ml as determined using the method described by Bradford in Anal. Biochem. 72:248-254 (1976), which is incorporated herein by reference.
Binding assays were carried out in polypropylene tubes. […] Assay tubes were incubated for 2.5 hr at 25° C. The reaction was terminated by filtration through GF-B filters (Wallac, Gaithesburg, Md.). The filters were subsequently washed with 6 ml Tris-HCl buffer at 4° C. Bound radioactivity was counted on a Beta-plate Liquid Scintillation Counter (Life Technologies, Gaithersburg, Md.) and expressed in counts per minute (cpm). Standard curves were prepared using 0.05-6300 nM naloxone (Sigma, St. Louis, Mo.). Competitive inhibition assays were performed as above using serial dilutions of the peptide mixtures. IC50 values were then calculated using the software […] (ISI, San Diego, Calif.).
Ac-YRFRYRYRRR-NH2 [SEQ ID NO. 2] displayed an IC50 of 18 nM.
Next, `CCCC[C@@H](NC(=O)[C@@H](Cc1ccccc1)NC(=O)[C@H](N)Cc1ccccc1)C(=O)N[C@H](CC1CCCCC1)C(=O)O` [SEQ ID NO. 13, (D)Phe-(D)Phe-(D)Nle-(D)ChAla] (H-[dF][dF][dNle][dCha]-OH): 3 nM; `CCCC[C@@H](N)C(=O)N[C@H](Cc1ccccc1)C(=O)N[C@@H](Cc1c[nH]c2ccccc12)C(=O)N[C@H](CC1CCCCC1)C(=O)O` [SEQ ID NO. 25, (D)Nle-(D)Phe-Trp-(D)ChAla] (H-[dNle][dF]W[dCha]-OH): 42800 nM; `CCCC[C@@H](N)C(=O)N[C@H](Cc1ccccc1)C(=O)N[C@@H](C(=O)N[C@H](CC1CCCCC1)C(=O)O)[C@H](C)CC` [SEQ ID NO. 27, (D)Nle-(D)Phe-(D)Ile-(D)ChAla] (H-[dNle][dF][dI][dCha]-OH): 1450 nM.
Consider Ac-RFFRYRYRRR-NH2 [SEQ ID NO. 3], for which the IC50 came to 22 nM.
Then Ac-RRFRYRYRRR-NH2 [SEQ ID NO. 5], with 142 nM; and Ac-YRTRYRYRRR-NH2 [SEQ ID NO. 1], with 10 nM; and `CCCC[C@@H](N)C(=O)N[C@H](Cc1ccccc1)C(=O)N[C@H](CCCC)C(=O)N[C@H](CCCNC(=N)N)C(=O)O` [SEQ ID NO. 23, (D)Nle-(D)Phe-(D)Nle-(D)Arg] (H-[dNle][dF][dNle][dR]-OH), with 10 nM.
Next, `CC[C@@H](C)[C@@H](NC(=O)[C@@H](Cc1ccccc1)NC(=O)[C@H](N)Cc1ccccc1)C(=O)N[C@H](CC1CCCCC1)C(=O)O` [SEQ ID NO. 17, (D)Phe-(D)Phe-(D)Ile-(D)ChAla] (H-[dF][dF][dI][dCha]-OH): 169 nM.
Then `CCCC[C@@H](N)C(=O)N[C@H](Cc1ccccc1)C(=O)N[C@@H](C(=O)N[C@H](CCCNC(=N)N)C(=O)O)[C@H](C)CC` [SEQ ID NO. 26, (D)Nle-(D)Phe-(D)Ile-(D)Arg] (H-[dNle][dF][dI][dR]-OH), with 16 nM; and `CC[C@@H](C)[C@@H](NC(=O)[C@@H](Cc1ccccc1)NC(=O)[C@H](N)Cc1ccccc1)C(=O)N[C@H](CCCNC(=N)N)C(=O)O` [SEQ ID NO. 16, (D)Phe-(D)Phe-(D)Ile-(D)Arg], with 2 nM; and Ac-YRMRYRYRRR-NH2 [SEQ ID NO. 4], with 36 nM.
On to `N=C(N)NCCC[C@@H](NC(=O)[C@H](Cc1c[nH]c2ccccc12)NC(=O)[C@@H](Cc1ccccc1)NC(=O)[C@H](N)Cc1ccccc1)C(=O)O` [SEQ ID NO. 14, (D)Phe-(D)Phe-Trp-(D)Arg] (H-[dF][dF]W[dR]-OH), for which the IC50 was 4950 nM.
Next, `N[C@H](Cc1ccccc1)C(=O)N[C@H](Cc1ccccc1)C(=O)N[C@@H](Cc1c[nH]c2ccccc12)C(=O)N[C@H](CC1CCCCC1)C(=O)O` [SEQ ID NO. 15, (D)Phe-(D)Phe-Trp-(D)ChAla] (H-[dF][dF]W[dCha]-OH): 52400 nM; `CCCC[C@@H](N)C(=O)N[C@H](Cc1ccccc1)C(=O)N[C@@H](Cc1c[nH]c2ccccc12)C(=O)N[C@H](CCCNC(=N)N)C(=O)O` [SEQ ID NO. 24, (D)Nle-(D)Phe-Trp(D)Arg] (H-[dNle][dF]W[dR]-OH): 11000 nM.

As a reminder, the IC50 is the concentration that inhibits the measured activity by half.
